Assay results as given in ChEMBL document CHEMBL3745612, “Synthesis and biological evaluation of thiophene and benzo[b]thiophene analogs of combretastatin A-4 and isocombretastatin A-4: A comparison between the linkage positions of the 3,4,5-trimethoxystyrene unit” (Bioorg Med Chem Lett, 2016).

Columns and labels:
[1] = target: Tubulin; experiment: Inhibition of Tubulin polymerization in human HeLa cells assessed as decrease in dynamic tyrosinated microtubules after 2 hrs by microplate reader analysis; assay type: cell-based
[2] = tested on: MES-SA; experiment: Antiproliferative activity against human MES-SA cells after 72 hrs by resazurin assay; assay type: functional, cell-based
[3] = Antiproliferative activity against human IC8 cells after 72 hrs by MTT assay; assay type: functional, cell-based; details: IC8, 72 h
[4] = Inhibition of sheep brain tubulin polymerization incubated at 37 degC for 10 mins and 0 degC for 5 mins by turbidimetry; design: species or system Ovis aries

Structure (SMILES) | EC50 [1] [µM] | IC50 [2] [µM] | IC50 [3] [µM] | EC50 [4] [µM]
COc1cc(C(=O)c2cc3ccccc3s2)cc(OC)c1OC | > 10 |  |  | 
COc1cc(/C=C\c2ccsc2)cc(OC)c1OC | > 10 |  |  | 
COc1cc(/C=C/c2cc3ccccc3s2)cc(OC)c1OC | 3.18 |  |  | 
COc1cc(/C=C\c2cc3ccccc3s2)cc(OC)c1OC | 2.6 | 0.013 | 0.017 | 0.08
C=C(c1cc(OC)c(OC)c(OC)c1)c1csc2ccccc12 | 3.9 |  |  | 
COc1cc(/C=C\c2cccs2)cc(OC)c1OC | > 10 |  |  | 
C=C(c1cc(OC)c(OC)c(OC)c1)c1cc2ccccc2o1 | > 10 |  |  | 
C=C(c1cc(OC)c(OC)c(OC)c1)c1cc2ccccc2s1 | 0.321 | 0.095 | 0.101 | 
C=C(c1ccsc1)c1cc(OC)c(OC)c(OC)c1 | > 10 |  |  | 
COc1cc(/C=C\c2csc3ccccc23)cc(OC)c1OC | 2.43 | 0.191 | 0.288 | 
COc1csc(/C=C\c2cc(OC)c(OC)c(OC)c2)c1 | 0.081 | 0.025 | 0.027 | 
COc1cc(C(=O)c2csc3ccccc23)cc(OC)c1OC | > 10 |  |  | 
C=C(c1cc(OC)c(OC)c(OC)c1)c1cccs1 | > 10 |  |  | 
COc1ccc(/C=C\c2cc(OC)c(OC)c(OC)c2)s1 | 1.56 | 0.053 | 0.076 | 
COc1cc2c(c(OC)c1OC)-c1ccc(OC)c(=O)cc1[C@@H](NC(C)=O)CC2 [COLCHICINE] |  | 0.015 | 0.015 | 
COc1ccc(/C=C\c2cc(OC)c(OC)c(OC)c2)cc1O [COMBRETASTATIN A4] |  | 0.003 | 0.004 | 
